Test results taken from patent US20130059787A1, “METHODS OF USING HUMAN PROTEIN KINASE C DELTA VIII AS A BIOMARKER” (UNITED STATES DEPARTMENT OF VETERAN AFFAIRS, priority 2010, published 2013).

Legend:
Assay type in all cases: cell-based, human
[1] = system: SR proteins; experiment: Western blot of NT2 whole cell lysates with mAb104 antibody; conditions: RA about 10 μM, about 24 h; NT2 cells
Experimental: (§1) FIG. 6 is a series of images illustrating the detection of SR proteins involved in RA-mediated PKXδVIII expression. NT2 cells were treated with RA (about 10 μM) for about 24 h or without RA (control), and Western blot analysis was performed on whole cell lysates using (a) mAb104 antibody that detects all SR proteins and (b) specific antibodies as indicated in the figure. Molecular masses are indicated (kDa).
(§2) Cell lysates (about 40 μg) were separated on 10% SDS-PAGE. […] In apoptotic cells, PARP is cleaved by caspase 3 into an 85 kDa fragment which is detected in addition to the 116 KDa fragment using anti-PARP antibody in western blot analysis. […] (Putt K S, Beilman G J, and H. P J., Direct quantitation of poly(ADP-ribose) polymerase (PARP) activity as a means to distinguish necrotic and apoptotic death in cell and tissue samples. Chembiochem, 2005. 6: p. 53-55)
(§3) (SR) proteins that bind to exonic or intronic splicing enhancers (ESE, ISE) on the pre-mRNA. […] NT2 cells were treated with or without RA (about 24 h), and whole cell lysates were analyzed by Western blot analysis using mAb104 antibody that simultaneously detects the phosphoepitopes on all SR proteins. […]

[2] = system: SC35 (SRp30b); experiment: Western blot of NT2 whole cell lysates with specific antibodies; conditions: RA about 10 μM, about 24 h; NT2 cells
Experimental: as §1, §2, §3

[3] = system: SF2/ASF (SRp30a); experiment: as above; conditions: RA about 10 μM, about 24 h; NT2 cells
Experimental: as §1, §2, §3

[4] = system: 5′ splice site II on PKCδ exon 10; experiment: Mutated pSPL3_PKCδ** minigene (SC35 cis-element mutated) in NT2 cells, RT-PCR; conditions: RA about 10 μM, about 24 h
From the text: FIG. 11 is a series of images depicting mutation of putative SC35 binding site inhibits RA-mediated utilization of 5′ splice site II utilization on the minigene. (a) schematic of the position and sequence of the putative SC35 cis-element on the pSPL3_PKCδ splicing minigene. Arrows indicate the position of primers used in PCR analysis. Putative SC35 binding site ggccaaag (SEQ ID No: 17) was mutated to tagcccaga (SEQ ID No: 18) on the minigene. (b) resulting mutated minigene pSPL3_PKCδ** was transfected into NT2 cells. In separate wells, the mutated minigene pSPL3_PKCδ** was co-transfected with either about 2 μg of SC35 or SF2/ASF. The original pSPL3_PKCδ splicing minigene was also transfected in a separate well. After overnight transfection, NT2 cells were treated with or without about 10 μM RA for about 24 h. Total RNA was extracted and RT-PCR performed using primers for PKCδ exon 10 sense and SA antisense as shown. About 5% of the products were separated by PAGE and silver stained for visualization. SSI: usage of 5′ splice site I; SSII: usage of 5′ splice site II. Graph represents percent exon inclusion calculated as SS II/(SS II+SSI)×100 and is representative of three experiments performed separately. […]

Compound: CC1=C(/C=C/C(C)=C/C=C/C(C)=C/C(=O)O)C(C)(C)CCC1 [RA, all-trans-retinoic acid]
- SR protein at ~30 kDa expression (mAb104) [1]: increased in expression
- SC35 (SRp30b) expression [2]: increase
- SF2/ASF (SRp30a) expression [3]: remained relatively constant
- selection of 5′ splice site II on PKCδ exon 10 in pSPL3_PKCδ**-mutated minigene [4]: did not promote
